Results on seven compounds are retold here after article PMC9429723, “Hypertoxic self-assembled peptide with dual functions of glutathione depletion and biosynthesis inhibition for selective tumor ferroptosis and pyroptosis” (Journal of Nanobiotechnology, 2022).

Data set [1] deals with 4T1 cells. In kind it is cell-based, mouse. On the procedure: (§1) All cells (8 × 10^3 per well) were plated in 96-well plates at 37 °C and 5% CO2 overnight. Then cells were treated with gradient concentrations of NSBSO, NCSBSO, NS or BSO for another 12 h or 24 h. Afterward, cck-8 reagent was added to each well. And the 96-well plates were incubated for another 3 h at 37 °C and followed by determining the absorbance at 450 nm utilizing a microplate reader (Thermo, USA). IC50 values of NSBSO against different cells were conducted using GraphPad Prism 8 software. Additionally, in order to determine the cell cytotoxicity of NSBSO after treatment with various inhibitors or GSH, the cells were pretreated with inhibitors for 24 h or GSH (0, 1, 2.5 and 5 mM) for 12 h before NSBSO treatment. The human breast adenocarcinoma cell line (MCF-7 cells), mouse melanoma cell line (B16 cells), human lung cancer line (A549 cells), mouse breast cancer cell line (4T1 cells), murine colon carcinoma cell line (CT26 cells) and mouse embryonic fibroblast cell line (3T3 cells) were used for research. MCF-7 and 3T3 cells were cultured in DMEM culture medium supplemented with 10% FBS and 1% penicillin/streptomycin (pen/strep) at 37 °C in 5% CO2. B16, A549, 4T1 and CT26 cells were cultured in RPMI Medium 1640 basic supplemented with 10% FBS and 1% penicillin/streptomycin (pen/strep) at 37 °C in 5% CO2.

The subject of data set [2] is B16 cells. In kind it is cell-based, mouse. The procedure: as §1
The subject of the next data set is GPX4. Description: Intracellular GPX4 activity assay in 4T1 cell lysates. In kind it is cell-based, mouse. As to conditions: 10 μM, 6 h, t-BuOOH as substrate. The procedure: 4T1 cells were all seeded in the density of 1 × 10^6 cells per dish in 6-cm dishes for 24 h. Upon completion of incubation with different treatments for 6 h, the cell lysates were collected and quantified by a detergent compatible bradford protein assay kit. The intracellular GPX activity was measured through a cellular glutathione peroxidase assay kit on the basis of the manufacturer’s instructions.

For data set [3], the system named is 4T1 cells. As to the kind of experiment: Rescue of NSBSO-induced cell death by inhibitors, 4T1 cells. In kind it is cell-based, mouse. On the procedure:
(§2) All cells (8 × 10^3 per well) were plated in 96-well plates at 37 °C and 5% CO2 overnight. Then cells were treated with gradient concentrations of NSBSO, NCSBSO, NS or BSO for another 12 h or 24 h. Afterward, cck-8 reagent was added to each well. And the 96-well plates were incubated for another 3 h at 37 °C and followed by determining the absorbance at 450 nm utilizing a microplate reader (Thermo, USA). IC50 values of NSBSO against different cells were conducted using GraphPad Prism 8 software. Additionally, in order to determine the cell cytotoxicity of NSBSO after treatment with various inhibitors or GSH, the cells were pretreated with inhibitors for 24 h or GSH (0, 1, 2.5 and 5 mM) for 12 h before NSBSO treatment.

The test system of data set [4] is B16 cells. Description: Rescue of NSBSO-induced cell death by inhibitors, B16 cells. In kind it is cell-based, mouse. As to conditions: inhibitor pretreated 24 h, NSBSO 12 h, cck-8. The procedure: as §2
The test system of a further data set is A549 cells. In kind it is cell-based, human. On the procedure:
as §1

The next data set has as its system MCF-7 cells. In kind it is cell-based, human. The procedure: as §1
A further data set concerns 3T3 cells. In kind it is cell-based, mouse. On the procedure: as §1
The next data set deals with CT26 cells. In kind it is cell-based, murine. The procedure:
as §1

A further data set is described as follows: in vitro. Conditions: serum.

Like-named read-outs stand apart in the source and are kept apart here. *: point of attachment. Cbz = O=C(OCc1ccccc1)*; CH2F = FC*

Regarding `CCCCS(=N)(=O)CC[C@H](N)C(=O)O` (stereo partly drawn) [BSO, L-buthionine-sulfoximine, reference compound], the cytotoxicity entry with 4T1 cells [1] and in the data set on B16 cells [2] was “did not show obvious cytotoxicity” each time. For the same compound, in the data set with GPX4, the “activity of GPX4 (rate of NADPH oxidation, 340 nm)” value was “suppressed to varying degrees”.

Turning to `CCOC(=O)c1ccc(NC2CCCCC2)c(N)c1` [Fer-1, ferrostatin-1], the “rescue of NSBSO-induced cell death” value is given as 42.13% with 4T1 cells [3] (Fer-1 0.5 μM pretreated 24 h before NSBSO treatment, cck-8, n = 4) and “did not markedly alleviate” in the data set on B16 cells [4].

Consider `CCCCS(=N)(=O)CC[C@H](NC(=O)[C@H](CC(=O)O)NC(=O)[C@@H](NC(=O)[C@H](CCC(=O)O)NC(=O)[C@H](CC(=O)O)NC(=O)CCC(=O)NCCCCCCNC(=O)[C@H](Cc1ccc(O)cc1)NC(=O)[C@@H](Cc1ccccc1)NC(=O)[C@@H](Cc1ccccc1)NC(=O)Cc1ccc2ccccc2c1)C(C)C)C(=O)O` (stereo partly drawn) [NCBSO, Nap-^DF^DFY-HDA-DEVD-BSO], for which the cytotoxicity entry in the data set with 4T1 cells [1] and with B16 cells [2] was “did not show obvious cytotoxicity” in each case.

As for `CC(C)[C@H](NC(=O)[C@H](CCC(=O)O)NC(=O)[C@H](CC(=O)O)NC(=O)CCC(=O)NCCSSCCNC(=O)[C@H](Cc1ccc(O)cc1)NC(=O)[C@@H](Cc1ccccc1)NC(=O)[C@@H](Cc1ccccc1)NC(=O)Cc1ccc2ccccc2c1)C(=O)N[C@@H](CC(=O)O)C(=O)O` [NS, Nap-^DF^DFY-CS-DEVD], the cytotoxicity result in the data set on 4T1 cells [1] and in the data set on B16 cells [2] was “concentration-dependent cytotoxicity” each time.

One may read the IC50 as the concentration that gives 50% inhibition. The term fraction remaining denotes what is left of the initial amount, in per cent. Read a low fraction remaining as more turnover. `CCCCS(=N)(=O)CC[C@H](NC(=O)[C@H](CC(=O)O)NC(=O)[C@@H](NC(=O)[C@H](CCC(=O)O)NC(=O)[C@H](CC(=O)O)NC(=O)CCC(=O)NCCSSCCNC(=O)[C@H](Cc1ccc(O)cc1)NC(=O)[C@@H](Cc1ccccc1)NC(=O)[C@@H](Cc1ccccc1)NC(=O)Cc1ccc2ccccc2c1)C(C)C)C(=O)O` (stereo partly drawn) [NSBSO, Nap-^DF^DFY-CS-DEVD-BSO]: the IC50 in the data set with A549 cells (12 h) is 7.56 µM; in the data set with A549 cells (24 h) it was 1.22 µM; with MCF-7 cells (12 h), 4430 nM; in the data set on MCF-7 cells (24 h), 1070 nM; in the data set on 3T3 cells (12 h), above 100 µM; in the data set on 3T3 cells (24 h) it was above 100 µM. The IC50 in the data set on 4T1 cells [1] (12 h) is 10.9 µM; in the data set with 4T1 cells [1] (24 h) it was 4.74 µM; with B16 cells [2] (12 h), 1980 nM; in the data set on B16 cells [2] (24 h), 844 nM; with CT26 cells (12 h) it was above 100 µM; in the data set with CT26 cells (24 h), above 100 µM. In addition, the cytotoxicity entry in the data set with 4T1 cells [1] and with B16 cells [2] was “concentration-dependent cytotoxicity” each time. Moreover, the share remaining at 2 h, 400 μM in the data set “in vitro” was above 80%. Besides, in “in vitro”, the amount remaining at 24 h, 400 μM was above 50%.

With Ac-DEVD-CHO, the “rescue of NSBSO-induced cell death” value with B16 cells [4] was “better rescued”.

Consider Cbz-Val-Ala-Asp-CH2F, for which the “rescue of NSBSO-induced cell death” value with 4T1 cells [3] (NSBSO 5 μM, 24 h, cck-8) was “scarcely rescued”.
